Data taken from patent US20200377485A1, “HYDANTOIN MODULATORS OF KV3 CHANNELS” (AUTIFONY THERAPEUTICS LIMITED, priority 2015, published 2020).

Columns and labels:
[1] = biological target: T1, human Kv3.2 channels (hKv3.2) (Homo sapiens, UniProt Q96PR1); assay: IonWorks Quattro electrophysiology, hKv3.2 stable CHO-K1 cell line (potentiation; secondary analysis of activation time Tauact); type: cell-based; settings: -15 mV depolarising step; concentration chosen to give ~0.3 nA at end of pulse: RE1 6.25, RE3 0.2, RE9 0.2, Example 1 0.8 μM; vehicle 7.1 ms
T1 construct: expressed in transfected cells
T1 sequence (Q96PR1 1-638): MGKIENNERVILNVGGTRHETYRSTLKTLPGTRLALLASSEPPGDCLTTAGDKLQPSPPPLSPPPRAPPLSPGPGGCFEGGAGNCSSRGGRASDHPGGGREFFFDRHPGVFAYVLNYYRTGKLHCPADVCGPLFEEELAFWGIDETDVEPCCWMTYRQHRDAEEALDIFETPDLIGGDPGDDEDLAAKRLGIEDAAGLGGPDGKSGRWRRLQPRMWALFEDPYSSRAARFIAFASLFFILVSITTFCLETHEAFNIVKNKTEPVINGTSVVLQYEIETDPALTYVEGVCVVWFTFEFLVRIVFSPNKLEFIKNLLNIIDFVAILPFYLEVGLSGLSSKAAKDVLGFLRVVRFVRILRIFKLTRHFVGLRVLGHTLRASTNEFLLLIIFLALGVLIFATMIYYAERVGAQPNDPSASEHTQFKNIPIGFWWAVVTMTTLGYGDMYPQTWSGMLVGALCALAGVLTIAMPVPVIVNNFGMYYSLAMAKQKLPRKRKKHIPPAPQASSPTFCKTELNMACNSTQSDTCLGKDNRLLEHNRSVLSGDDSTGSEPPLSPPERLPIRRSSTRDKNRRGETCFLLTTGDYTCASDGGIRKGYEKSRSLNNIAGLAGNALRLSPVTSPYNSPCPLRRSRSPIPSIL
Method: The ability of the compounds of the invention to modulate the voltage-gated potassium channel subtypes Kv3.2 or Kv3.1 may be determined using the following assay.
To assess compound effects on human Kv3.2 channels (hKv3.2), a stable cell line expressing hKv3.2 was created by transfecting Chinese Hamster Ovary (CHO)-K1 cells with a pClH5-hKv3.2 vector. Cells were cultured in DMEM/F12 medium supplemented by 10% Foetal Bovine Serum, lx non-essential amino acids (Invitrogen) and 500 ug/ml of Hygromycin-B (Invitrogen). Cells were grown and maintained at 37° C. in a humidified environment containing 5% CO2 in air.
The day of the experiment, cells were removed from the incubator and the culture medium removed. Cells were washed with 5 ml of Dulbecco's PBS (DPBS) calcium and magnesium free and detached by the addition of 3 ml Versene (Invitrogen, Italy) followed by a brief incubation at 37° C. for 5 minutes. The flask was tapped to dislodge cells and 10 ml of DPBS containing calcium and magnesium was added to prepare a cell suspension. The cell suspension was then placed into a 15 ml centrifuge tube and centrifuged for 2 min at 1200 rpm. […]
Experiments were conducted at room temperature using IonWorks Quattro™ planar array electrophysiology technology (Molecular Devices Corp.) with PatchPlate™ PPC. […] Planar electrode hole resistances (Rp) were determined by applying a 10 mV voltage step across each well. […] Test pulses protocol may be performed in the absence (pre-read) and presence (post-read) of the test compound. Pre- and post-reads may be separated by the compound addition followed by a 3 minute incubation. […]
The recordings were analysed and filtered using both seal resistance (>20 MΩ) and peak current amplitude (>500 pA at the voltage step of 40 mV) in the absence of compound to eliminate unsuitable cells from further analysis. Paired comparisons between pre- and post-drug additions measured for the −15 mV voltage step were used to determine the positive modulation effect of each compound. […]

[2] = system: rat model of neuropathic pain; assay: Neuropathic pain model, partial ligation of the sciatic nerve, paw withdrawal threshold to mechanical force; type: in vivo
Method: (§1) Subjects comprised male, Wistar Hanover rats, 6 animals per group (225±2 g).
(§2) Vehicle (12% Captisol®; 0.5% w/v HPMC and 0.1% w/v Tween-80; 5 ml/kg via the intraperitoneal route) was prepared using autoclaved deionized water not more than one week prior to use.
The control for the neuropathic pain model was lamotrigine, administered at 30 mg/kg via oral delivery. The control for the inflammatory pain model was diclofenac, administered at 30 mg/kg via oral delivery. Statistical analysis was performed using one-way ANOVA, and comparisons were performed with time-matched vehicle group using Tukey's HSD test wherein * p<0.05, ** p<0.01, *** p<0.001. […]
Withdrawal thresholds were measured on both the ipsilateral (ligated) and contralateral (non-ligated) paws, prior to (predose) and then up to 24 h following drug or vehicle administration.
Pre-dose behavioural measurements were obtained by measuring paw withdrawals 14 days following nerve ligation; before the initiation of drug treatment. Following treatment, further readings were taken at 1, 3, 6 and 24 hour after administration. […]
Data were expressed as withdrawal threshold (g) and percentage reversals calculated according to the following formula: […]
Statistical analysis was carried out on withdrawal threshold readings using ANOVA with repeated measures followed by Tukey's HSD test. […]

[3] = system: rat model of persistent inflammatory pain; assay: Persistent inflammatory pain model, intraplantar Freund's Complete Adjuvant, paw withdrawal threshold to mechanical force; type: in vivo
Method: as §1, §2
The control for the neuropathic pain model was lamotrigine, administered at 30 mg/kg via oral delivery. The control for the inflammatory pain model was diclofenac, administered at 30 mg/kg via oral delivery. Statistical analysis was performed using one-way ANOVA, and comparisons were performed with time-matched vehicle group using Tukey's HSD test wherein * p<0.05, ** p<0.01, *** p<0.001.
Mechanical hyperalgesia was examined in a model of persistent inflammatory pain. […]
To assess the effect of the test compound, paw withdrawal thresholds were measured on both the ipsilateral (FCA-injected) and contralateral (non-injected) paws, prior to (naïve) and 24 h following FCA injection (predose), and then at 1, 3, 6 and 24 h after drug or vehicle administration.
Mechanical hyperalgesia was examined in a model of neuropathic pain by measuring paw withdrawal thresholds (PWT) to increasing mechanical force applied to the dorsal surface of the rat paw using an Analgesymeter (Ugo-Basile, Milan) equipped with a wedge-shaped probe (area 1.75 mm^2). […] Both ipsilateral and contralateral paw withdrawal readings were taken. […]

[4] = General observations of behaviour during the pain studies; type: in vivo, rat; settings: acute administration, 10-60 mg/kg i.p., neuropathic and inflammatory pain models
Text: In addition to behavioural pain readings, each rat was observed throughout the study for changes in general behaviour.

**Q.** For `CC[C@H]1NC(=O)N(c2ccc(Oc3ccc(C#N)cc3C(C)(C)C)nc2)C1=O` [RE3, 3-(1,1-dimethylethyl)-4-({5-[(4R)-4-ethyl-2,5-dioxo-1-imidazolidinyl]-2-pyridinyl}oxy)benzonitrile], which “Tauact mean (activation time constant of hKv3.2 current)” value (shortened to “Tauact mean”) [1] is on record?
**A.** The value was 23.0 ms.

**Q.** With `Cc1ccc(Oc2ncc(N3C(=O)NC(C)(C)C3=O)cn2)c2c1OCC21CC1` [Compound X, 5,5-dimethyl-3-[2-(7-methylspiro[2H-benzofuran-3,1-cyclopropane]-4-yl)oxypyrimidin-5-yl]imidazolidine-2,4-dione] as the compound, how does the “reversal of mechanical sensitivity, in words” value ([2]; 10, 30, 60 mg/kg i.p.) read?
**A.** The value was “dose-related reversal of mechanical sensitivity with rapid onset and long duration of action”.

**Q.** What about the “reversal of mechanical sensitivity, in words” value ([3]; 10, 30, 60 mg/kg i.p.) of the same compound?
**A.** Its value is “dose-related reversal of mechanical sensitivity with rapid onset of action”.

**Q.** And the “changes in normal (general) behaviour” value [4]?
**A.** Its value is “without causing significant changes in normal behaviour”.

**Q.** For `Nc1nnc(-c2cccc(Cl)c2Cl)c(N)n1` [lamotrigine], which “peak reversal of mechanical sensitivity (positive control)” value ([2]; 30 mg/kg oral, 3 h post-dose) is on record?
**A.** Its value is 67%.

**Q.** With `CC[C@H]1NC(=O)N(c2ccc(Oc3ccc(C)c(OC)c3)nc2)C1=O` [RE1, (5R)-5-ethyl-3-(6-{[4-methyl-3-(methyloxy)phenyl]oxy}-3-pyridinyl)-2,4-imidazolidinedione] as the compound, how does the “Tauact mean” value [1] read?
**A.** The value was 9.9 ms.

**Q.** For `CC[C@@]1(C)NC(=O)N(c2ccc(Oc3ccc(C)c4c3C3(CC3)CO4)cn2)C1=O` [Example 1, (5R)-5-ethyl-5-methyl-3-[5-(7-methylspiro[2H-benzofuran-3,1′-cyclopropane]-4-yl)oxy-2-pyridyl]imidazolidine-2,4-dione], which “Tauact mean” value [1] is on record?
**A.** The value was 18.2 ms.

**Q.** For `O=C(O)Cc1ccccc1Nc1c(Cl)cccc1Cl` [diclofenac], which “peak reversal of mechanical sensitivity (positive control)” value ([3]; 30 mg/kg oral, 1 h post-dose) is on record?
**A.** The value was 64%.
